pIC50: −log10 of the molar value.
tested on: MOLM-13 cells; assay: Viability assay in MOLM-13 cells (CellTiter-Glo 2.0); assay type: cell-based, human; settings: Homo sapiens, MOLM-13, 72 h, read-out: MOLM-13 IC50 (cell viability)
Description: Effects of test compounds on the proliferation and viability of human AML cells was evaluated using the MOLM-13 cell line (AddexBio Technologies cat. no. C0003003). […] Test compounds or controls (Bortezomib or DMSO) diluted in 2% DMSO/media were added to each well for final concentrations of 0.2% DMSO and 0.1-1 μM Bortezomib. The cells were incubated for 72 hours at 37° C. and 5% CO2. At the end of the 72 hour incubation, plates were removed from the incubator, cooled to room temperature and equal volume of CellTiter-Glo 2.0 (Promega) added to each well. After mixing and incubating the plate at room temperature for 10 minutes the luminescence was read using a plate reader. […] Concentration-response-curves and IC50 values were generated using Collaborative Drug Discovery software.

Row | SMILES | pIC50
1 | COCCNc1ccnc(NCc2ccc3nc(Cn4ccc5c(-c6ccccc6)cncc5c4=O)cn3c2)c1 [Compound 99, 2-((6-(((4-((2-methoxyethyl)amino)pyridin-2-yl)amino)methyl)imidazo[1,2-a]pyridin-2-yl)methyl)-5-phenyl-2,7-naphthyridin-1(2H)-one] | < 5.00
2 | O=c1c2cncc(-c3ccccc3)c2ccn1Cc1cn2cc(-c3cc(N4CCC4)ccn3)ccc2n1 [Compound 105, 2-((6-(4-(azetidin-1-yl)pyridin-2-yl)imidazo[1,2-a]pyridin-2-yl)methyl)-5-phenyl-2,7-naphthyridin-1(2H)-one] | 5.00 to 6.00

same assay, conditions: MOLM-13 human AML cells, 72 hours, CellTiter-Glo 2.0; read-out: MOLM-13 IC50 (cell viability)

Row | SMILES | pIC50
3 | COc1ccnc(NCc2ccc3nc(Cn4ccc5c(-c6ccccc6)cncc5c4=O)cn3c2)c1 [Compound 101, 2-((6-(((4-methoxypyndin-2-yl)amino)methyl)imidazo[1,2-a]pyridin-2-yl)methyl)-5-phenyl-2,7-naphthyridin-1(2H)-one] | 5.00 to 6.00
4 | O=c1c2cncc(-c3ccccc3)c2ccn1Cc1cn2cc(CNc3cc(N4CCOCC4)ccn3)ccc2n1 [Compound 102, 2-{[6-({[4-(morpholin-4-yl)pyridin-2-yl]amino}methyl)imidazo[1,2-a]pyridin-2-yl]methyl}-5-phenyl-1,2-dihydro-2,7-naphthyridin-1-one] | 5.00 to 6.00
5 | O=c1c2cncc(N3CC4(CCC4)C3)c2ccn1Cc1cn2cc(CNCC3CC(F)C3)ccc2n1 (centres unmarked) [Compound 110, 2-((6-((((3-fluorocyclobutyl)methyl)amino)methyl)imidazo [1,2-a]pyridin-2-yl)methyl)-5-(2-azaspiro[3.3]heptan-2-yl)-2,7-naphthyridin-1(2H)-one] | 5.00 to 6.00
6 | CC1(C)CCN(Cc2ccc3nc(Cn4ccc5c(N6CC7(C6)CC(F)(F)C7)cncc5c4=O)cn3c2)CC1 [Compound 111, 5-{6,6-difluoro-2-azaspiro[3.3]heptan-2-yl}-2-({6-[(4,4-dimethylpiperidin-1-yl)methyl]imidazo[1,2-a]pyridin-2-yl}methyl)-1,2-dihydro-2,7-naphthyridin-1-one] | < 5.00
7 | CC1(C)CCN(Cc2ccc3nc(Cn4ccc5c(N6CCC(F)(F)CC6)cncc5c4=O)cn3c2)CC1 [Compound 112, 5-(4,4-difluoropiperidin-1-yl)-2-({6-[(4,4-dimethylpiperidin-1-yl)methyl]imidazo[1,2-a]pyridin-2-yl}methyl)-1,2-dihydro-2,7-naphthyridin-1-one] | 5.00 to 6.00
8 | CC1(C)CCN(Cc2ccc3nc(Cn4ccc5c(N6CC7(CCOCC7)C6)cncc5c4=O)cn3c2)CC1 [Compound 114, 2-({6-[(4,4-dimethylpiperidin-1-yl)methyl]imidazo[1,2-a]pyridin-2-yl}methyl)-5-{7-oxa-2-azaspiro[3.5]nonan-2-yl}-1,2-dihydro-2,7-naphthyridin-1-one] | 5.00 to 6.00
9 | CC1(C)CCN(Cc2ccc3nc(Cn4ccc5c(N6CC7COCC7C6)cncc5c4=O)cn3c2)CC1 (centres unmarked) [Compound 117, 2-({6-[(4,4-dimethylpiperidin-1-yl)methyl]imidazo[1,2-a]pyridin-2-yl}methyl)-5-{hexahydro-1H-furo[3,4-c]pyrrol-5-yl}-1,2-dihydro-2,7-naphthyridin-1-one] | < 5.00
10 | CC1(C)CCN(Cc2ccc3nc(Cn4ccc5c(N6CC(N7CCOCC7)C6)cncc5c4=O)cn3c2)CC1 [Compound 118, 2-({6-[(4,4-dimethylpiperidin-1-yl)methyl]imidazo[1,2-a]pyridin-2-yl}methyl)-5-[3-(morpholin-4-yl)azetidin-1-yl]-1,2-dihydro-2,7-naphthyridin-1-one] | 5.00 to 6.00
11 | CN1CCN(C2CN(c3cncc4c(=O)n(Cc5cn6cc(CN7CCC(C)(C)CC7)ccc6n5)ccc34)C2)CC1 [Compound 126, 2-({6-[(4,4-dimethylpiperidin-1-yl)methyl]imidazo[1,2-a]pyridin-2-yl}methyl)-5-[3-(4-methylpiperazin-1-yl)azetidin-1-yl]-1,2-dihydro-2,7-naphthyridin-1-one] | < 5.00
12 | O=c1c2cncc(N3CC4(CCOCC4)C3)c2ccn1Cc1cn2cc(CN3CC4(CCC4)C3)ccc2n1 [Compound 128, 2-{[6-({2-azaspiro[3.3]heptan-2-yl}methyl)imidazo[1,2-a]pyridin-2-yl]methyl}-5-{7-oxa-2-azaspiro[3.5]nonan-2-yl}-1,2-dihydro-2,7-naphthyridin-1-one] | 5.00 to 6.00
13 | O=c1c2cncc(N3CC4(CCOCC4)C3)c2ccn1Cc1cn2cc(CN3CCC4(CCC4)CC3)ccc2n1 [Compound 129, 2-((6-((7-azaspiro[3.5]nonan-7-yl)methyl)imidazo[1,2-a]pyridin-2-yl)methyl)-5-(7-oxa-2-azaspiro[3.5]nonan-2-yl)-2,7-naphthyridin-1(2H)-one] | 5.00 to 6.00
14 | CC1(C#N)CCN(Cc2ccc3nc(Cn4ccc5c(N6CC7(CCOCC7)C6)cncc5c4=O)cn3c2)CC1 [Compound 134, 4-methyl-1-({2-[(5-{7-oxa-2-azaspiro[3.5]nonan-2-yl}-1-oxo-1,2-dihydro-2,7-naphthyridin-2-yl)methyl]imidazo[1,2-a]pyridin-6-yl}methyl)piperidine-4-carbonitrile] | < 5.00
15 | O=c1c2cncc(N3CC4(CCOCC4)C3)c2ccn1Cc1cn2cc(CN3CC4(C3)CC(F)(F)C4)ccc2n1 [Compound 135, 2-{[6-({6,6-difluoro-2-azaspiro[3.3]heptan-2-yl}methyl)imidazo[1,2-a]pyridin-2-yl]methyl}-5-{7-oxa-2-azaspiro[3.5]nonan-2-yl}-1,2-dihydro-2,7-naphthyridin-1-one] | 5.00 to 6.00
16 | O=c1c2cncc(N3CC4(CCOCC4)C3)c2ccn1Cc1cn2cc(CN3CCC4(CCCC4)C3)ccc2n1 [Compound 137] | 5.00 to 6.00
17 | CC1CCN(Cc2ccc3nc(Cn4ccc5c(N6CC7(CCOCC7)C6)cncc5c4=O)cn3c2)CC1 [Compound 138, 2-({6-[(4-methylpiperidin-1-yl)methyl]imidazo[1,2-a]pyridin-2-yl}methyl)-5-{7-oxa-2-azaspiro[3.5]nonan-2-yl}-1,2-dihydro-2,7-naphthyridin-1-one] | 5.00 to 6.00

Results, then the compound that gave them:

Row | pIC50 | SMILES
18 | 5.00 to 6.00 | O=c1c2cncc(-c3ccccc3)c2ccn1Cc1cn2cc(CNc3cc(NCCCCl)ccn3)ccc2n1 [Compound 96, 2-((6-(((4-((3-chloropropyl)amino)pyridin-2-yl)amino)methyl)imidazo [1,2-a]pyridin-2-yl)methyl)-5-phenyl-2,7-naphthyridin-1(2H)-one]
19 | 5.00 to 6.00 | O=c1c2cncc(-c3ccccc3)c2ccn1Cc1cn2cc(CNc3ccccn3)ccc2n1 [Compound 100, 5-phenyl-2-((6-((pyridin-2-ylamino)methyl)imidazo[1,2-a]pyridin-2-yl)methyl)-2,7-naphthyridin-1(2H)-one]
20 | 5.00 to 6.00 | CC1(C)CCN(Cc2ccc3nc(Cn4ccc5c(N6CCOCC6)cncc5c4=O)cn3c2)CC1 [Compound 113, 2-({6-[(4,4-dimethylpiperidin-1-yl)methyl]imidazo[1,2-a]pyridin-2-yl}methyl)-5-(morpholin-4-yl)-1,2-dihydro-2,7-naphthyridin-1-one]
21 | 5.00 to 6.00 | CC1(C)CCN(Cc2ccc3nc(Cn4ccc5c(N6CC7(CCNCC7)C6)cncc5c4=O)cn3c2)CC1 [Compound 119, 5-{2,7-diazaspiro[3.5]nonan-2-yl}-2-({6-[(4,4-dimethylpiperidin-1-yl)methyl]imidazo[1,2-a]pyridin-2-yl}methyl)-1,2-dihydro-2,7-naphthyridin-1-one]
22 | < 5.00 | CC1(C)CCN(Cc2ccc3nc(Cn4ccc5c(-c6ccc(S(N)(=O)=O)cc6)cncc5c4=O)cn3c2)CC1 [Compound 123, 4-[7-({6-[(4,4-dimethylpiperidin-1-yl)methyl]imidazo[1,2-a]pyridin-2-yl}methyl)-8-oxo-7,8-dihydro-2,7-naphthyridin-4-yl]benzene-1-sulfonamide]
23 | < 5.00 | CC1(C)CCN(Cc2ccc3nc(Cn4ccc5c(C#Cc6ccncc6)cncc5c4=O)cn3c2)CC1 [Compound 124, 2-((6-((4,4-dimethylpiperidin-1-yl)methyl)imidazo[1,2-a]pyridin-2-yl)methyl)-5-(pyridin-4-ylethynyl)-2,7-naphthyridin-1(2H)-one]
24 | < 5.00 | CN(C)CC1CN(c2cncc3c(=O)n(Cc4cn5cc(CN6CCC(C)(C)CC6)ccc5n4)ccc23)C1 [Compound 125, 5-{3-[(dimethylamino)methyl]azetidin-1-yl}-2-({6-[(4,4-dimethylpiperidin-1-yl)methyl]imidazo[1,2-a]pyridin-2-yl}methyl)-1,2-dihydro-2,7-naphthyridin-1-one]
25 | 5.00 to 6.00 | O=c1c2cncc(N3CC4(CCOCC4)C3)c2ccn1Cc1cn2cc(CN3CCC4(CC3)CC4)ccc2n1 [Compound 127, 2-{[6-({6-azaspiro[2.5]octan-6-yl}methyl)imidazo[1,2-a]pyridin-2-yl]methyl}-5-{7-oxa-2-azaspiro[3.5]nonan-2-yl}-1,2-dihydro-2,7-naphthyridin-1-one]
26 | 5.00 to 6.00 | O=c1c2cncc(N3CC4(CCOCC4)C3)c2ccn1Cc1cn2cc(CN3CCC4(CCOC4)C3)ccc2n1 (centres unmarked) [Compound 130, 5-{7-oxa-2-azaspiro[3.5]nonan-2-yl}-2-{[6-({2-oxa-7-azaspiro[4.4]nonan-7-yl}methyl)imidazo[1,2-a]pyridin-2-yl]methyl}-1,2-dihydro-2,7-naphthyridin-1-one]
27 | 5.00 to 6.00 | O=c1c2cncc(N3CC4(CCOCC4)C3)c2ccn1Cc1cn2cc(CN3CCC(C(F)(F)F)CC3)ccc2n1 [Compound 132, 5-{7-oxa-2-azaspiro[3.5]nonan-2-yl}-2-[(6-{[4-(trifluoromethyl)piperidin-1-yl]methyl}imidazo[1,2-a]pyridin-2-yl)methyl]-1,2-dihydro-2,7-naphthyridin-1-one]
28 | 5.00 to 6.00 | O=c1c2cncc(N3CC4(CCOCC4)C3)c2ccn1Cc1cn2cc(CN3CC4(CC(F)C4)C3)ccc2n1 [Compound 136, 2-{[6-({6-fluoro-2-azaspiro[3.3]heptan-2-yl}methyl)imidazo[1,2-a]pyridin-2-yl]methyl}-5-{7-oxa-2-azaspiro[3.5]nonan-2-yl}-1,2-dihydro-2,7-naphthyridin-1-one]
29 | 5.00 to 6.00 | O=c1c2cncc(N3CC4(CCOCC4)C3)c2ccn1Cc1cn2cc(CN3CCC4(C3)CC(F)(F)C4)ccc2n1 [Compound 140, 2-{[6-({2,2-difluoro-6-azaspiro[3.4]octan-6-yl}methyl)imidazo[1,2-a]pyridin-2-yl]methyl}-5-{7-oxa-2-azaspiro[3.5]nonan-2-yl}-1,2-dihydro-2,7-naphthyridin-1-one]

Reference: US20250059207A1, “6,6-FUSED HETEROCYCLIC COMPOUNDS AS METTL3 INHIBITORS” (858 Therapeutics, Inc., priority 2021, published 2025)
